# Test results reported in patent US20250214960A1, “COMPOUNDS HAVING ACTIVITY OF DEGRADING GSPT1 AND APPLICATION THEREOF” (SHANGHAI MEIZER PHARMACEUTICALS CO., LTD., priority 2021, published 2025).
# Read-outs that look alike come from different tables or passages of the source.
# Molecular target: T1, GSPT1 protein (Homo sapiens, UniProt P15170+Q96SW2)
# T1 construct: endogenous in cells; host or cells: Jeko-1
# Experiment: Western blot detection of degradation activity of GSPT1 protein in Jeko-1 cells
# Format: cell-based
# Conditions: for inhibition at 0.1 µM / inhibition at 10 µM / inhibition at 0.01 µM / inhibition at 1 µM: JeKo-1, 24 h, read-out: GSPT1 degradation rate (%)
# Description: Test Example 1: Western Blot Detection of Degradation Activity of GSPT1 Protein by the Compounds
# Cell line: Jeko-1 cell line was cultured with an RPMI1640 media containing 20% fetal bovine serum in an incubator at 37° C., 5% CO2, and saturated humidity.
# DMSO control group and test compound (concentration shown in the table below) were set up, after processing for 24 hours, the cells were collected, pre-cooled cell lysate was added and left on ice for 10 minutes. The total protein of the cells was extracted, and the protein concentration was measured and quantified using the BCA method. Routine gel preparation, sample loading, electrophoresis were conducted, then the membrane was transferred, and sealed, wherein the primary antibody was diluted with a blocking solution at 1:500-5000. The membrane was immersed in the diluted primary antibody and incubated overnight at 4° C. After rinsing, the secondary antibody was diluted with a sealing solution at 1:10000-20000, the membrane was immersed in the diluted secondary antibody, and incubated at room temperature for 45 minutes. After rinsing, the results were tested on ODYSSEY (Li-COR). GAPDH was used as an internal reference control.
# Image J software was used to perform gray level analysis on each band and the degradation rate of GSPT1 protein by the compounds was calculated.
# T1 sequence (P15170 whole entry): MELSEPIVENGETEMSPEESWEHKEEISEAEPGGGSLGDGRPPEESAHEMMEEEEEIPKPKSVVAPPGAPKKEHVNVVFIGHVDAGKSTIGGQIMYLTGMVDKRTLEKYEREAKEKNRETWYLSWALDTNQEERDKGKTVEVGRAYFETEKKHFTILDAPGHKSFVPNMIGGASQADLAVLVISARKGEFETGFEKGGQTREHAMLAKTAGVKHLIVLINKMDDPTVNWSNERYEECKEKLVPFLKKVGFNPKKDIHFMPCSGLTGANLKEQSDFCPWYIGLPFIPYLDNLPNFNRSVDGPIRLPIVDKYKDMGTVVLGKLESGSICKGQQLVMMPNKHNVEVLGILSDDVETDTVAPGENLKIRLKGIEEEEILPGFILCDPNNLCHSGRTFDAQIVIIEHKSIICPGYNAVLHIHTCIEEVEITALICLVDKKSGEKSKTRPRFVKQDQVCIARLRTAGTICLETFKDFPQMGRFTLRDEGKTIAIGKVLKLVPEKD
# T1 sequence (Q96SW2 whole entry): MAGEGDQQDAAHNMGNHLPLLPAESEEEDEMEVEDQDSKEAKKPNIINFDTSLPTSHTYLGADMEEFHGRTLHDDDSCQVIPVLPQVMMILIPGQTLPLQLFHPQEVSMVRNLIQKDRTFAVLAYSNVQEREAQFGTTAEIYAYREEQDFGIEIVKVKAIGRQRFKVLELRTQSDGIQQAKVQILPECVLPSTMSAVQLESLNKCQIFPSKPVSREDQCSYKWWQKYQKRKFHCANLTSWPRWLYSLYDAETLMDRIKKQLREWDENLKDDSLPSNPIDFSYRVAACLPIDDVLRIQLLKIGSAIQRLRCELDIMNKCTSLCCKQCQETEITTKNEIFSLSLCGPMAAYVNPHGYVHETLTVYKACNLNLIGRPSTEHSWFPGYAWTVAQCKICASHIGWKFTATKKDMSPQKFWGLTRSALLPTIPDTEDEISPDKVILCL
# T1 sequence (Q16531 whole entry partner): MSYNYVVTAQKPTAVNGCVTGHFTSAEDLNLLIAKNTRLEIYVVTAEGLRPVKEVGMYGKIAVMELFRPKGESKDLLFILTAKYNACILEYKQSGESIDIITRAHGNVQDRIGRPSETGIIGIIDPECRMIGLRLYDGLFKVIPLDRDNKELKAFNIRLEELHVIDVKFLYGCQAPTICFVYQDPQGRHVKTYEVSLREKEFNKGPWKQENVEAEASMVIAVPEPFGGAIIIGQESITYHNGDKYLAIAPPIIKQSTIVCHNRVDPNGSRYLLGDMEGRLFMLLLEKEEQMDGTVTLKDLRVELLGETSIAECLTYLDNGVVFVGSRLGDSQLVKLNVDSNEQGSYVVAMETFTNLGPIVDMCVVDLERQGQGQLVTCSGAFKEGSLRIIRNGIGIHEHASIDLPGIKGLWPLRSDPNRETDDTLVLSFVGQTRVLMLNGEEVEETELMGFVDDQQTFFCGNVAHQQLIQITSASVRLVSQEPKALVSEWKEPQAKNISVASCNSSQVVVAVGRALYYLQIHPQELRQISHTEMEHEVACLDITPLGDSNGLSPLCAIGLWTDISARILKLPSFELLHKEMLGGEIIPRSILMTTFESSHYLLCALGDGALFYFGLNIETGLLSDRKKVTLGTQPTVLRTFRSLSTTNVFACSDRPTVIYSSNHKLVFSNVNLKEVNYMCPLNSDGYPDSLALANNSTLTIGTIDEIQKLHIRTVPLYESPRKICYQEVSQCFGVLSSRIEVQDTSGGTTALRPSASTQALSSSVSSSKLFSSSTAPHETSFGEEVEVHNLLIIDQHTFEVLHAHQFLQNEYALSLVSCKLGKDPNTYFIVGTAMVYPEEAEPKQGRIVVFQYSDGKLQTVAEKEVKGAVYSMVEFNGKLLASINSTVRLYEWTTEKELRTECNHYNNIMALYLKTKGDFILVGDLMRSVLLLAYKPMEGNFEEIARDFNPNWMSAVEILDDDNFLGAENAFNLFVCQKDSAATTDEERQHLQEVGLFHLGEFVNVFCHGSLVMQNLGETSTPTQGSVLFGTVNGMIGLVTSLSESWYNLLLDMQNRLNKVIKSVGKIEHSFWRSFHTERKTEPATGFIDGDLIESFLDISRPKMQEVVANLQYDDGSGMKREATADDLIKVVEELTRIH
Structure (SMILES),"inhibition at 0.1 µM (100 nM, Jeko-1 cells, 24 hours)","inhibition at 10 µM (10 μM, Jeko-1 cells, 24 hours)",other results
"CN(C(=O)OC(C)(C)C)C(C(=O)NCc1ccc2c(c1)CN(C1CCC(=O)NC1=O)C2=O)c1ccc(Cl)c(Cl)c1 (stereo not drawn) [Compound 5-76, Tert butyl (1-(3,4-dichlorophenyl)-2-((2-(2,6-dioxopyridin-3-yl)-1-oxoisoidoline-5-yl)methyl)amino)-2-oxoethyl (methyl) carbamate]",65.2%,84.6%,–
"CC(C)(C)OC(=O)O[C@H](C(=O)NCc1ccc2c(c1)CN(C1CCC(=O)NC1=O)C2=O)c1ccccc1 (stereo partly drawn) [Compound 5-82, Tert butyl ((1S)-2-((2-(2,6-dioxypiperidin-3-yl)-1-oxoisoindoline-5-yl)methyl)amino)-2-oxo-1-phenylethy 1) carbonate]",29.8%,74.8%,–
"CC(C)(C)OC(=O)N[C@@H](CC(N)=O)C(=O)NCc1ccc2c(c1)CN(C1CCC(=O)NC1=O)C2=O (stereo partly drawn) [Compound 5-43, Tert butyl ((2S)-4-amino-1-((2-(2,6-dioxypiperidin-3-yl)-1-oxoisoindolin-5-yl)methyl)amino)-1,4-dioxobutane-2-yl) carbamate]",11.6%,87.9%,–
"O=C1CCC(N2Cc3cc(CNC(=O)[C@@H](NC(=O)OC4CCOCC4)c4ccccc4)ccc3C2=O)C(=O)N1 (stereo partly drawn) [Compound 6-03, ((1S)-2-(((2-(2,6-dioxopyridin-3-yl)-1-oxoisoindoline-5-yl)methyl)amino)-2-oxo-1-phenylethyl) carbamate-γ-Oxyhexanol Ester]",–,–,inhibition at 0.01 µM: 28%; inhibition at 1 µM: 90%
"O=C1CCC(N2Cc3cc(CNC(=O)[C@@H](NC(=O)OC4CCOC4)c4ccccc4)ccc3C2=O)C(=O)N1 (stereo partly drawn) [Compound 6-01, ((1S)-2-(((2-(2,6-dioxopyridin-3-yl)-1-oxoisoindoline-5-yl)methyl)amino)-2-oxo-1-phenylethyl) carbamate-β-Oxocyclopentanol Ester]",–,–,inhibition at 0.01 µM: 10%; inhibition at 1 µM: 68%
CC(C)(C)NC(=O)NCC(C(=O)NCc1ccc2c(c1)CN(C1CCC(=O)NC1=O)C2=O)c1ccccc1 (stereo not drawn) [Compound 5-12],18%,71%,–
O=C1CCC(N2Cc3cc(CNC(=O)C(NC(=O)C4CCCC4)c4ccccc4)ccc3C2=O)C(=O)N1 (stereo not drawn) [Compound 5-30],59%,93%,–
"O=C1CCC(N2Cc3cc(CNC(=O)C(CNC(=O)Nc4ccccc4)c4ccccc4)ccc3C2=O)C(=O)N1 (stereo not drawn) [Compound 5-11, N-((2-(2,6-dioxypiperidin-3-yl)-1-oxoisoindolin-5-yl)methyl)-2-phenyl-3-(3-phenylurea) propionamide]",–,–,inhibition at 0.1 µM: 17%; inhibition at 10 µM: 77%
O=C1CCC(N2Cc3cc(CNC(=O)C(CNC(=O)c4ccccc4)c4ccccc4)ccc3C2=O)C(=O)N1 (stereo not drawn) [Compound 5-26],–,–,inhibition at 0.1 µM: 33%; inhibition at 10 µM: 98%
O=C1CCC(N2Cc3cc(CNC(=O)C(CNC(=O)C4CCCCC4)c4ccccc4)ccc3C2=O)C(=O)N1 (stereo not drawn) [Compound 5-25],58%,96%,–
"O=C1CCC(N2Cc3cc(CNC(=O)[C@@H](NC(=O)OCc4ccccc4)c4ccccc4)ccc3C2=O)C(=O)N1 (stereo partly drawn) [Compound 4-139, Benzyl ((1S)-2-((2-(2,6-dioxypiperidin-3-yl)-1-oxoisoindoline-5-yl)methyl)amino)-2-oxo-1-phenylethyl) carbamate]",98%,97%,–
"CC(C)(C)OC(=O)N[C@@H](C(=O)NCc1ccc2c(c1)CN(C1CCC(=O)NC1=O)C2=O)c1ccccc1 (stereo partly drawn) [Compound 4-108, Tert butyl ((1R)-2-((2-(2-(2,6-Dioxopiperidin-3-yl)-1-oxoisoindolin-5-yl)methyl)amino)-2-oxo-1-phenylethyl) carbamate]",–,–,"inhibition at 0.01 µM (10 nM, Jeko-1 cells, 24 hours): 10%; inhibition at 1 µM (1 μM, Jeko-1 cells, 24 hours): 95%"
"O=C1CCC(N2Cc3cc(CNC(=O)[C@@H](NC(=O)OC4CCCCC4)c4ccccc4)ccc3C2=O)C(=O)N1 (stereo partly drawn) [Compound 6-02, ((1S)-2-(((2-(2,6-dioxypiperidin-3-yl)-1-oxoisoindoline-5-yl)methyl)amino)-2-oxo-1-phenylethyl) carbamate Cyclohexanol Ester]",–,–,inhibition at 0.01 µM: 95%; inhibition at 1 µM: 96%
CC(C)[C@@H]1CC[C@@H](C)C[C@H]1OC(=O)N[C@H](C(=O)NCc1ccc2c(c1)CN(C1CCC(=O)NC1=O)C2=O)c1ccccc1 (stereo partly drawn) [Compound 4-175b],–,–,inhibition at 0.01 µM: 98%; inhibition at 1 µM: 99%
"CC(C)(C)OC(=O)NCC(C(=O)NCc1ccc2c(c1)CN(C1CCC(=O)NC1=O)C2=O)C1CCCCC1 (stereo not drawn) [Compound 5-55, Tert butyl (2-cyclohexyl-3-((2-(2,6-dioxypiperidin-3-yl)-1-oxoisoindoline-5-yl)methyl)amino)-3-oxopropyl) carbamate]",85.1%,93.9%,–
"CC(C)OC(=O)N[C@H](C(=O)NCc1ccc2c(c1)CN(C1CCC(=O)NC1=O)C2=O)c1ccccc1 (stereo partly drawn) [Compound 4-160, Isopropyl ((1S)-2-((2-(2,6-dioxypiperidin-3-yl)-1-oxoisoindoline-5-yl)methyl)amino)-2-oxo-1-phenylethy 1) carbamate]",–,–,inhibition at 0.1 µM: 96%; inhibition at 10 µM: 89%
"CC(C)(C)OC(=O)NC[C@@H](Cc1ccccc1)C(=O)NCc1ccc2c(c1)CN(C1CCC(=O)NC1=O)C2=O (stereo partly drawn) [Compound 4-171, Tert butyl ((2R)-2-benzyl-3-((2-(2,6-dioxypiperidin-3-yl)-1-oxoisoindolin-5-yl)methyl)amino)-3-oxopropyl) carbamate]",29%,88%,–
"O=C1CCC(N2Cc3cc(CNC(=O)[C@@H](NC(=O)NCc4ccccc4)c4ccccc4)ccc3C2=O)C(=O)N1 (stereo partly drawn) [Compound 4-184, (2S)-2-(3-benzylurea)-N-((2-(2,6-dioxopyridin-3-yl)-1-oxoisoidoline-5-yl)methyl)-2-phenylacetamide]",21%,85%,–
Cc1ccc(S(=O)(=O)N[C@H](C(=O)NCc2ccc3c(c2)CN(C2CCC(=O)NC2=O)C3=O)c2ccccc2)cc1 (stereo partly drawn) [Compound 4-176],35%,53%,–
O=C1CCC(N2Cc3cc(CNC(=O)[C@H](CC4CCCCC4)NC(=O)C4CCCC4)ccc3C2=O)C(=O)N1 (stereo partly drawn) [Compound 5-54],41.3%,87.1%,–
"CC(C)(C)C(=O)NCC(C(=O)NCc1ccc2c(c1)CN(C1CCC(=O)NC1=O)C2=O)c1ccccc1 (stereo not drawn) [Compound 5-23, N-((2-(2,6-dioxypiperidin-3-yl)-1-oxoisoidoline-5-yl)methyl)-2-phenyl-3-terpentylaminopropionamide]",28%,93%,–
O=C1CCC(N2Cc3cc(CNC(=O)[C@@H](CNC(=O)C4CCCC4)c4ccccc4)ccc3C2=O)C(=O)N1 (stereo partly drawn) [Compound 5-95],16%,70%,–
"CC(C)C[C@H](NC(=O)OC(C)(C)C)C(=O)NCc1ccc2c(c1)CN(C1CCC(=O)NC1=O)C2=O (stereo partly drawn) [Compound 5-84, Tert butyl ((2S)-1-((2-(2,6-dioxypiperidin-3-yl)-1-oxoisoidoline-5-yl)methyl)amino)-4-methyl-1-oxapent-2-yl) carbamate]",52.7%,82.7%,–
"CC(C)(C)NC(=O)NCC(Cc1ccccc1)C(=O)NCc1ccc2c(c1)CN(C1CCC(=O)NC1=O)C2=O (stereo not drawn) [Compound 4-188, 2-Benzyl-3-(3-(tertbutyl)urea)-N-((2-(2,6-dioxypiperidin-3-yl)-1-oxoisoindoline-5-yl)methyl) propionamide]",32%,63%,–
O=C1CCC(N2Cc3cc(CNC(=O)[C@@H](CNC(=O)C4CCCC4)c4ccc(Cl)cc4)ccc3C2=O)C(=O)N1 (stereo partly drawn) [Compound 5-52],38.1%,92.7%,–
"O=C1CCC(N2Cc3cc(CNC(=O)C(CNC(=O)OC4CCCC4)c4ccccc4)ccc3C2=O)C(=O)N1 (stereo not drawn) [Compound 5-3, Cyclopentyl (3-((2-(2,6-dioxypiperidin-3-yl)-1-oxoisoindolin-5-yl)methyl)amino)-3-oxo-2-phenylpropyl) carbamate]",–,–,inhibition at 0.1 µM: 76%; inhibition at 10 µM: 49%
"O=C1CCC(N2Cc3cc(CNC(=O)C(NC(=O)CC4CCCC4)c4ccccc4)ccc3C2=O)C(=O)N1 (stereo not drawn) [Compound 5-29, 2-(2-cyclopentylacetamido)-N-((2-(2,6-dioxopyridin-3-yl)-1-oxoisoidoline-5-yl)methyl)-2-phenylacetamide]",70%,97%,–
O=C1CCC(N2Cc3cc(CNC(=O)C(CNC(=O)C4CCCC4)c4ccccc4)ccc3C2=O)C(=O)N1 (stereo not drawn) [Compound 5-9],–,–,"GSPT1 degradation rate (%) (100 nM, Jeko-1 cells, 24 hours): 45%; GSPT1 degradation rate (%) (10 μM, Jeko-1 cells, 24 hours): 93%"
N[C@H](C(=O)NCc1ccc2c(c1)CN(C1CCC(=O)NC1=O)C2=O)c1ccccc1 (stereo partly drawn) [Compound 4-87-2],21%,15%,–
"CCOC(=O)N[C@H](C(=O)NCc1ccc2c(c1)CN(C1CCC(=O)NC1=O)C2=O)c1ccccc1 (stereo partly drawn) [Compound 4-138, Ethyl ((1S)-2-((2-(2,6-dioxypiperidin-3-yl)-1-oxoisoindoline-5-yl)methyl)amino)-2-oxo-1-phenylethyl) carbamate]",31%,88%,–
